Where two headings read alike, the source gives them in different places.
What was measured:
[1] = target: human mitochondrial RNA polymerase (Homo sapiens, UniProt O00411); assay: DdRp assay: incorporation of nucleotides by human mitochondrial RNA polymerase (HMRP); details: 100 μM of each NTP, single turnover, 30° C., 1 minute; template for GTP analogs
[2] = test system: Huh-7 cells containing the self-replicating, subgenomic HCV replicon; assay: HCV replicon assay (luciferase reporter); type: cell-based; details: Hepatitis C virus
NS5B570-Con1 (Delta-21) = NS5B570-Con1 (Delta-21) (Hepatitis C virus genotype 1b, UniProt Q9WMX2); assay: biochemical; parameters: species or system HCV Con-1 strain
[3] = test system: mitochondrial protein synthesis (COX I relative to SDH A) in HepG2 cells

Chain of human mitochondrial RNA polymerase (O00411 42-1230): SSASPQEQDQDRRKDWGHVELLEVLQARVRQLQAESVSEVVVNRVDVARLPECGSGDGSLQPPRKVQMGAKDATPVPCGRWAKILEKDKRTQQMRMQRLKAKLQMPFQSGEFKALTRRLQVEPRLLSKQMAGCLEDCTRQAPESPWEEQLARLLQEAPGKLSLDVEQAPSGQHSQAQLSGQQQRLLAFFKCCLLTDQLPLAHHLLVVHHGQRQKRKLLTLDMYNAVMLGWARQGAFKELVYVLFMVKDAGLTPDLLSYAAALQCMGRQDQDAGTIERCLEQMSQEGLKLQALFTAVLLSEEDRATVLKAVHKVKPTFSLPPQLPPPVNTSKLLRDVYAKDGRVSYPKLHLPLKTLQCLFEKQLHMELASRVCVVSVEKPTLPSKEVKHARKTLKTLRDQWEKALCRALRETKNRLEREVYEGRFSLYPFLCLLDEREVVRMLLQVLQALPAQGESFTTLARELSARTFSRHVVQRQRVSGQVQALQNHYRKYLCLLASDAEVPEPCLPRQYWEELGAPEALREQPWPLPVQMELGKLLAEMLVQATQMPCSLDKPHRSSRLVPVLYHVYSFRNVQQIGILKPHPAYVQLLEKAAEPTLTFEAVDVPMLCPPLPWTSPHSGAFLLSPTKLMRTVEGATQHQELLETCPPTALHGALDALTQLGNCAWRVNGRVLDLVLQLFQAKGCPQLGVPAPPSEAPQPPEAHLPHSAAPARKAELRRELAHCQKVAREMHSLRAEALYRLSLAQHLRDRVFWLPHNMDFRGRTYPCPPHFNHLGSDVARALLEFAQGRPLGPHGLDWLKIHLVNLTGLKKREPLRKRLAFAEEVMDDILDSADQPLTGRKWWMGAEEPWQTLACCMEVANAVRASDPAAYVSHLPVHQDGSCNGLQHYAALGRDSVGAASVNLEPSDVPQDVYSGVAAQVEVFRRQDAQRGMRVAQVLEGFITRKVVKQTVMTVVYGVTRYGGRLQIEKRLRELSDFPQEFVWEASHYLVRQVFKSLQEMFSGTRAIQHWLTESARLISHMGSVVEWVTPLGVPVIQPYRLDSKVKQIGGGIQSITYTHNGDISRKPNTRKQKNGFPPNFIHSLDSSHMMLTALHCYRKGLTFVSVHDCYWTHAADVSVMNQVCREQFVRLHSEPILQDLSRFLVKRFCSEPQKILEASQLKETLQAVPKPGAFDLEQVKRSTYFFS

Row | Structure (SMILES) | EC50 ([2]; Huh-7, 72 h) | other results
1 | Nc1ncnc2c1ncn2[C@@H]1O[C@H](COP(=O)(O)OP(=O)(O)OP(=O)(O)O)[C@@H](O)[C@H]1O [ATP] |  | incorporation by human mitochondrial RNA polymerase (product band, FIG. 10) [1]: poor substrate for incorporation
2 | CCOc1nc(N)nc2c1ncn2[C@@H]1O[C@H](COP(=O)(N[C@@H](C)C(=O)OCC(C)(C)C)Oc2ccccc2Cl)[C@@H](F)[C@@]1(C)O (stereo partly drawn) [Compound 2, (2S)-neopentyl 2-(((((2R,3R,4S,5R)-5-(2-amino-6-ethoxy-1H-purin-9(6H)-yl)-3-fluoro-4-hydroxy-4-methyltetrahydrofuran-2-yl)methoxy)(2-chlorophenoxy)phosphoryl)amino)propanoate] | < 1 µM | 
3 | CCOc1nc(N)nc2c1ncn2[C@@H]1O[C@H](COP(=O)(N[C@@H](C)C(=O)OC2CCCCC2)Oc2ccc(F)c(Cl)c2)[C@@H](F)[C@@]1(C)O (stereo partly drawn) [Compound 3, (2S)-cyclohexyl 2-(((((2R,3R,4S,5R)-5-(2-amino-6-ethoxy-1H-purin-9(6H)-yl)-3-fluoro-4-hydroxy-4-methyltetrahydrofuran-2-yl)methoxy)(3-chloro-4-fluorophenoxy)phosphoryl)amino)propanoate] | < 1 µM | 
4 | CCOc1nc(N)nc2c1ncn2[C@@H]1O[C@H](COP(=O)(N[C@@H](C)C(=O)OCC(C)(C)C)Oc2ccccc2)[C@@H](F)[C@@]1(C)O (stereo partly drawn) [Compound 4, (2S)-neopentyl 2-(((((2R,3R,4S,5R)-5-(2-amino-6-ethoxy-1H-purin-9(6H)-yl)-3-fluoro-4-hydroxy-4-methyltetrahydrofuran-2-yl)methoxy)(phenoxy)phosphoryl)amino)propanoate] | < 1 µM | 
5 | CCOc1nc(N)nc2c1ncn2[C@@H]1O[C@H](COP(=O)(N[C@@H](C)C(=O)OC2CCCCC2)Oc2ccccc2)[C@@H](F)[C@@]1(C)O (stereo partly drawn) [Compound 5, (2S)-cyclohexyl 2-(((((2R,3R,4S,5R)-5-(2-amino-6-ethoxy-1H-purin-9(6H)-yl)-3-fluoro-4-hydroxy-4-methyltetrahydrofuran-2-yl)methoxy)(phenoxy)phosphoryl)amino)propanoate] | < 1 µM | 
6 | C[C@@]1(O)[C@H](F)[C@@H](CO)O[C@H]1n1cnc2c(=O)[nH]c(N)nc21 [Compound 6, 2-amino-9-((2R,3S,4R,5R)-4-fluoro-3-hydroxy-5-(hydroxymethyl)-3-methyltetrahydrofuran-2-yl)-1H-purin-6(9H)-one] |  | EC50 ([2]; Huh-7, HCV replicon cells, 72 h, Bright-Glo luciferase, read-out: EC50): 10 to 100 µM
7 | C[C@H](NP(=O)(OC[C@H]1O[C@@H](n2cnc3c(=O)[nH]c(N)nc32)[C@](C)(O)[C@@H]1F)Oc1ccccc1Cl)C(=O)OCC(C)(C)C (stereo partly drawn) [Compound 7, (2S)-neopentyl 2-(((((2R,3R,4S,5R)-5-(2-amino-6-oxo-1H-purin-9(6H)-yl)-3-fluoro-4-hydroxy-4-methyltetrahydrofuran-2-yl)methoxy)(2-chlorophenoxy)phosphoryl)amino)propanoate] | 10 to 100 µM | 
8 | C[C@H](NP(=O)(OC[C@H]1O[C@@H](n2cnc3c(=O)[nH]c(N)nc32)[C@](C)(O)[C@@H]1F)Oc1ccc(F)c(Cl)c1)C(=O)OC1CCCCC1 (stereo partly drawn) [Compound 8, (2S)-cyclohexyl 2-(((((2R,3R,4S,5R)-5-(2-amino-6-oxo-1H-purin-9(6H)-yl)-3-fluoro-4-hydroxy-4-methyltetrahydrofuran-2-yl)methoxy)(3-chloro-4-fluorophenoxy)phosphoryl)amino)propanoate] | 10 to 100 µM | 
9 | C[C@H](NP(=O)(OC[C@H]1O[C@@H](n2cnc3c(=O)[nH]c(N)nc32)[C@](C)(O)[C@@H]1F)Oc1ccccc1)C(=O)OC1CCCCC1 (stereo partly drawn) [Compound 9, (2S)-cyclohexyl 2-(((((2R,3R,4S,5R)-5-(2-amino-6-oxo-1H-purin-9(6H)-yl)-3-fluoro-4-hydroxy-4-methyltetrahydrofuran-2-yl)methoxy)(phenoxy)phosphoryl)amino)propanoate] | 1 to 10 µM | 
10 | CCOc1nc(N)nc2c1ncn2[C@@H]1O[C@H](COP(=O)(N[C@@H](C)C(=O)OC(C)C)Oc2ccccc2)[C@@H](F)[C@@]1(C)O (stereo partly shown) [Compound 10] | < 1 µM | 
11 | CCOc1nc(N)nc2c1ncn2[C@@H]1O[C@H](COP(=S)(N[C@@H](C)C(=O)OC(C)C)Oc2ccccc2)[C@@H](F)[C@@]1(C)O (stereo partly shown) [Compound 11] | 10 to 100 µM | 
12 | CCOc1nc(N)nc2c1ncn2[C@@H]1O[C@H](COP(=S)(N[C@@H](C)C(=O)OC2CCCCC2)Oc2ccccc2)[C@@H](F)[C@@]1(C)O (stereo partly shown) [Compound 12] | 1 to 10 µM | 
13 | CCOc1nc(N)nc2c1ncn2[C@@H]1O[C@H](COP(=S)(N[C@@H](C)C(=O)OCC(C)(C)C)Oc2ccccc2)[C@@H](F)[C@@]1(C)O (stereo partly shown) [Compound 13] | 1 to 10 µM | 
14 | C[C@@]1(O)[C@H](F)[C@@H](COP(=O)(O)OP(=O)(O)OP(=O)(O)O)O[C@H]1n1cnc2c(=O)[nH]c(N)nc21 [Compound 15] |  | IC50 (NS5B570-Con1 (Delta-21)): < 1 µM
15 | Cc1cn([C@H]2C=C[C@@H](CO)O2)c(=O)[nH]c1=O [d4T] |  | inhibition of mitochondrial protein synthesis (FIGS. 11A-B) [3]: found not to inhibit mitochondrial protein synthesis
16 | Nc1ccn([C@H]2CC[C@@H](CO)O2)c(=O)n1 [ddC] |  | inhibition of mitochondrial protein synthesis (FIGS. 11A-B) [3]: strongly inhibit mitochondrial protein synthesis
